Data from patent US20220204495A1, “INHIBITING TRABID” (Valo Health, Inc., priority 2019, published 2022).

What follows are molecules tested against T1, TRABID(245-697) (Homo sapiens, UniProt Q9UGI0) (assay: TRABID inhibition biochemical assay (Ub-Rh110MP fluorescence)). Conditions: 10 nM TRABID(245-697), 25 nM Ub-Rh110MP, 30 minutes preincubation with compound, 10-point 3-fold series 26.6 μM to 1.35 nM.
T1 construct: 10 nM TRABID(245-697) and 25 nM Ub-Rh110MP (UbiQ, UbiQ-126) final concentrations
T1 sequence (Q9UGI0 245-697): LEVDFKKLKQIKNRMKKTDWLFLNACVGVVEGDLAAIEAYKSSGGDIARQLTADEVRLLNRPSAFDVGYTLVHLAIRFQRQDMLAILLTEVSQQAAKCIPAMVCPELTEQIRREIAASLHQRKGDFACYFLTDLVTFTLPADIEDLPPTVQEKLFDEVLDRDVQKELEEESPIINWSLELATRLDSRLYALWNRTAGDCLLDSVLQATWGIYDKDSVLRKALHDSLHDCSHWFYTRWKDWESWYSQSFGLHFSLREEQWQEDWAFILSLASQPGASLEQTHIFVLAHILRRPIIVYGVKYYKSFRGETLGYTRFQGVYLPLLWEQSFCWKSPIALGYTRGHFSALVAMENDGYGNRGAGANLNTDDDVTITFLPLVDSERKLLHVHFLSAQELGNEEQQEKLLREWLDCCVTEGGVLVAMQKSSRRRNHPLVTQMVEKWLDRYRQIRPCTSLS
Description: TRABID enzymatic assays were performed in a final volume of 6 μL in buffer containing 20 mM Tris-HCl pH 8.0, (Corning 46-031-CM), and 1 mM GSH (Sigma, G4251), 0.03% BGG (Sigma, G7516), and 0.01% Triton X-100 (Sigma, 93443). Test compounds were serially diluted in DMSO (Sigma, G7516) to obtain 10-point, 3-fold series. Nanoliter quantities were pre-dispensed into 1536 assay plates (Corning, 9110BC) for the concentration response range, 26.6 μM to 1.35 nM. 3 μL of 2× enzyme was added to the assay plates, preincubated with compound for 30 minutes and then 3 μL of 2× substrate was added to initiate the reaction (10 nM TRABID(245-697) and 25 nM Ub-Rh110MP (UbiQ, UbiQ-126) final concentrations). Enzyme and substrate concentrations and incubation times were optimized for the maximal signal-to-background while maintaining linear initial velocity conditions at a fixed substrate concentration below Km.
Fluorescence signal was measured on an EnVision Plate Reader (PerkinElmer) equipped with 485 nm excitation filter and 535 nm emission filters.
Rates were calculated by: rate=((final FLU−initial FLU)/600 seconds) where final FLU=fluorescence at time 10 minutes, initial FLU=fluorescence at time 0 minutes and 600=duration of reaction in seconds.
Data were reported as percent inhibition compared with control wells based on the following equation: % inh=[…] where rate=measured rate of fluorescence generated during assay, AveLow=average rate of no enzyme control (n=32), and AveHigh=average rate of DMSO control (n=32).
IC50 values were determined by curve fitting of the standard 4 parameter logistic fitting algorithm included in the Activity Base software package (IDBS) using XE Designer equation Model 205. Data were fitted using the Levenburg Marquardt algorithm.
In the case of `CN(C(=O)c1cnc(-c2ccccc2)s1)[C@H]1C[C@H](CNC#N)C1` (single isomer, unassigned) [Compound 20, N-methyl-2-phenyl-N-[(trans)-3-[(cyanoamino)methyl]cyclobutyl]-1,3-thiazole-5-carboxamide], the IC50 is reported as 2950 nM. Work on `N#CN[C@H]1C[C@]2(CCN(C(=O)c3cc(-c4ccccn4)no3)C2)C1` (single isomer, unassigned) [Compound 45, {[(2r,4s)-6-[3-(pyridin-2-yl)-1,2-oxazole-5-carbonyl]-6-azaspiro[3.4]octan-2-yl]amino}formonitrile] yielded an IC50 of 8100 nM. In the case of `N#CNC[C@@H]1CCN(C(=O)c2csc(-c3ccccc3Oc3ccccc3)n2)C1` [Compound 1, cyano([[(3S)-1-[2-(2-phenoxyphenyl)-1,3-thiazole-4-carbonyl]pyrrolidin-3-yl]methyl])amine], the IC50 is reported as 140 nM. Work on `N#CNC[C@H]1CCN(C(=O)c2csc(-c3ccccc3Oc3ccccc3)n2)C1` [Compound 2, cyano([[(3R)-1-[2-(2-phenoxyphenyl)-1,3-thiazole-4-carbonyl]pyrrolidin-3-yl]methyl])amine] yielded an IC50 of 439 nM. Molecule `COc1cccc(-c2ncc(NC(=O)CCCNC#N)s2)c1` [Compound 3, 4-(cyanoamino)-N-[2-(3-methoxyphenyl)-1,3-thiazol-5-yl]butanamide] has an IC50 of 743 nM. `COc1cccc(-c2ncc(NC(=O)[C@H](C)CCNC#N)s2)c1` [Compound 4, (2R)-4-(cyanoamino)-N-[2-(3-methoxyphenyl)-1,3-thiazol-5-yl]-2-methylbutanamide] was tested, and the IC50 was 850 nM. With `COc1cccc(-c2ncc(C(=O)NCCCNC#N)s2)c1` [Compound 5, N-[3-(cyanoamino)propyl]-2-(3-methoxyphenyl)-1,3-thiazole-5-carboxamide] the IC50 was 872 nM. `COc1cccc(-c2ncc(NC(=O)[C@@H](C)CCNC#N)s2)c1` [Compound 6, (2S)-4-(cyanoamino)-N-[2-(3-methoxyphenyl)-1,3-thiazol-5-yl]-2-methylbutanamide] showed an IC50 of 951 nM. Molecule `N#CNC1C[C@@]12CCN(C(=O)c1csc(-c3ccc(Cl)cc3Cl)n1)C2` (some centres unmarked) [Compound 7] has an IC50 of 1060 nM. Work on `Cn1cc(-c2ccc(-c3cc(NC(=O)CCCNC#N)on3)cc2)cn1` [Compound 8, 4-(cyanoamino)-N-[3-[4-(1-methylpyrazol-4-yl)phenyl]-1,2-oxazol-5-yl]butanamide] yielded an IC50 of 1060 nM. For `N#CNCCCC(=O)Nc1cnc(-c2ccccc2Oc2ccccc2)s1` [Compound 9, 4-(cyanoamino)-N-[2-(2-phenoxyphenyl)-1,3-thiazol-5-yl]butanamide], the IC50 was 1130 nM. `COc1ccccc1-c1ncc(NC(=O)CCCNC#N)s1` [Compound 10, 4-(cyanoamino)-N-[2-(2-methoxyphenyl)-1,3-thiazol-5-yl]butanamide] showed an IC50 of 1160 nM. `N#CNC[C@H]1CCN(C(=O)c2csc(-c3ccc(Cl)cc3Cl)n2)C1` [Compound 11] was tested, and the IC50 was 1160 nM. `COc1ccccc1-c1nc(C(=O)N2CC[C@@H](CNC#N)C2)cs1` [Compound 12, cyano([[(3S)-1-[2-(2-methoxyphenyl)-1,3-thiazole-4-carbonyl]pyrrolidin-3-yl]methyl])amine] was tested, and the IC50 was 1250 nM. Work on `Cn1cc(-c2ccc(-c3cc(C(=O)N4CCC5(CC(NC#N)C5)C4)on3)cc2)cn1` (centres unmarked) [Compound 13, [(6-[3-[4-(1-methyl-1H-pyrazol-4-yl)phenyl]-1,2-oxazole-5-carbonyl]-6-azaspiro[3.4]octan-2-yl)amino]formonitrile] yielded an IC50 of 1260 nM. With `COc1ccccc1-c1nc(C(=O)N2CC[C@H](CNC#N)C2)cs1` [Compound 14, cyano([[(3R)-1-[2-(2-methoxyphenyl)-1,3-thiazole-4-carbonyl]pyrrolidin-3-yl]methyl])amine] the IC50 was 1280 nM. `Cn1cc(-c2ccc(-c3cc(NC(=O)CCNC#N)on3)cc2)cn1` [Compound 15, 3-(cyanoamino)-N-[3-[4-(1-methylpyrazol-4-yl)phenyl]-1,2-oxazol-5-yl]propanamide] gave an IC50 of 1390 nM. With `N#CNC[C@H]1C[C@H](NC(=O)c2cnc(-c3ccccc3)s2)C1` [Compound 16, 2-phenyl-N-[(trans)-3-[(cyanoamino)methyl]cyclobutyl]-1,3-thiazole-5-carboxamide] the IC50 was 1580 nM. Work on `N#CNCC12CC1CN(C(=O)c1csc(-c3ccc(Cl)cc3Cl)n1)C2` (centres unmarked) [Compound 17] yielded an IC50 of 1600 nM. Molecule `C[C@H](CNC#N)C(=O)Nc1cc(-c2ccc(-c3cnn(C)c3)cc2)no1` [Compound 18, (2R)-3-(cyanoamino)-2-methyl-N-[3-[4-(1-methylpyrazol-4-yl)phenyl]-1,2-oxazol-5-yl]propanamide] has an IC50 of 1660 nM. With `C[C@@H](CNC#N)C(=O)Nc1cc(-c2ccc(-c3cnn(C)c3)cc2)no1` [Compound 19, (2S)-3-(cyanoamino)-2-methyl-N-[3-[4-(1-methylpyrazol-4-yl)phenyl]-1,2-oxazol-5-yl]propanamide] the IC50 was 2590 nM. Molecule `COc1cccc(-c2cc(C(=O)N3CC4CC4(CNC#N)C3)on2)c1` (centres unmarked) [Compound 22] has an IC50 of 3400 nM. With `N#CNC[C@H]1CN(C(=O)c2csc(-c3ccc(Cl)cc3Cl)n2)CCO1` [Compound 24, Cyano({[(2S)-4-[2-(2,4-dichlorophenyl)-1,3-thiazole-4-carbonyl]morpholin-2-yl]methyl})amine] the IC50 was 4000 nM. For `N#CN[C@H]1[C@@H]2CN(C(=O)c3nc(-c4ccccc4)cs3)C[C@@H]21` [Compound 25], the IC50 was 4410 nM. For `N#CN[C@H]1[C@@H]2CN(C(=O)c3csc(-c4ccc(Cl)cc4Cl)n3)C[C@@H]21` [Compound 26], the IC50 was 4530 nM. Work on `N#CNCC1CN(C(=O)c2csc(-c3ccc(Cl)cc3Cl)n2)C1` [Compound 29] yielded an IC50 of 5160 nM. With `COc1ccc(-c2cc(C(=O)N3CC4CC4(CNC#N)C3)on2)cc1` (centres unmarked) [Compound 31] the IC50 was 5210 nM. `N#CNC[C@@H]1CCCN(C(=O)c2csc(-c3ccc(Cl)cc3Cl)n2)C1` [Compound 32] was tested, and the IC50 was 5270 nM. `COc1ccc(-c2cc(C(=O)N3CC[C@@]4(CC4NC#N)C3)on2)cc1` (some centres unmarked) [Compound 34] gave an IC50 of 5660 nM. For `N#CNC1C[C@@]12CCN(C(=O)c1nc(-c3ccccc3)cs1)C2` (some centres unmarked) [Compound 36], the IC50 was 6510 nM. `COc1cccc(-c2cc(C(=O)N3CC[C@@]4(CC4NC#N)C3)on2)c1` (some centres unmarked) [Compound 38] gave an IC50 of 520 nM. Work on `N#CNC[C@H]1CCCN1C(=O)c1csc(-c2ccc(Cl)cc2Cl)n1` [Compound 39] yielded an IC50 of 6620 nM. In the case of `N#CN[C@H]1CC[C@@H](NC(=O)c2cccc(Oc3ccccc3)c2)C1` [Compound 40], the IC50 is reported as 7290 nM. Molecule `COc1ccc(-c2cc(C(=O)N(C)CCCNC#N)on2)cc1` [Compound 41] has an IC50 of 7750 nM. Work on `COc1cccc(-c2ncc(NC(=O)[C@H](C)CNC#N)s2)c1` [Compound 43, (2R)-3-(cyanoamino)-N-[2-(3-methoxyphenyl)-1,3-thiazol-5-yl]-2-methylpropanamide] yielded an IC50 of 7880 nM. Work on `N#CNC1CC2(CCN(C(=O)c3csc(-c4ccc(Cl)cc4Cl)n3)CC2)C1` [Compound 44] yielded an IC50 of 8000 nM. `N#CNC[C@H]1CCN(C(=O)c2nc(-c3ccccc3)cs2)C1` [Compound 46] showed an IC50 of 8470 nM. Molecule `CN(CCCNC#N)C(=O)c1nc(-c2ccccc2)cs1` [Compound 48] has an IC50 of 8740 nM.
